Measurements: patent US20050089509A1 (priority 2003, published 2005)
Several values for one entry are separate records, joined by “and”; a condition that tells them apart may be missing. Identical values can stand only once. Like-named read-outs stand apart in the source and are kept apart here.

Key:
J774 cells = type: cell-based, murine
F. novicida [1] = system: F. novicida; design: species or system F. tularensis subsp. novicida; settings: in vivo
F. novicida [2] = system: F. novicida; design: species or system F. tularensis subsp. novicida; settings: in vivo; remark: listed apart in the source
[3] = cited from earlier work
F. novicida [4] = type: cell-based, F. tularensis subsp. novicida
F. novicida [5] = system: F. novicida; design: species or system F. tularensis subsp. novicida; settings: in vivo; remark: listed apart in the source
[6] = mouse, in vivo

Substance	TNF-α detected (in words) (J774 cells)	bacteria in the liver and spleen (F. novicida [1])	bacteria recovered from the spleens (F. novicida [1])	time to death (F. novicida [2])	half-life in vivo [3]	toxicity ([3]; in vivo)	intracellular bacterial replication in macrophages (F. novicida [4])	animals succumbed to the infection by day (F. novicida [5])	toxicity [6]	efficacy of route of delivery ([6]; ip)	TNF-α increase (J774 cells)	survival (F. novicida [5])	survival / control of the disease (in words) (F. novicida [5])
IL-12	very little TNF-α	marked reduction of bacteria	no bacteria recovered	significantly increased the time to death	longer sustainable half-life than IFN-γ	very little toxicity	did not inhibit bacterial replication	≤ 6 days	no toxicity observed	most efficacious	–	–	–
IFN-γ	–	–	–	–	–	–	markedly inhibited replication of bacteria	–	–	–	9 fold and 18 fold	–	–
gentamicin	–	–	–	–	–	–	–	–	–	–	–	17%	ineffective in controlling the disease
